Assay results from PMC10779433, “Bidirectional Allosteric Coupling between PIP2 Binding and the Pore of the Oncochannel TRPV6” (International Journal of Molecular Sciences, 2024).
Residues, ends and D or L forms follow the SMILES beside them. *: point of attachment. Palmitoyl = CCCCCCCCCCCCCCCC(=O)*

What was measured:
[1] = system: TRPV6 R492A; experiment: NFAT screen, TRPV6 R492A; format: cell-based, human; settings: HEK293 cells; 5 μM cis-22a, 2 h; nuclear NFAT already reduced without cis-22a
Method: (§1) N-terminally TagRFP-labeled human TRPV6 (725 aa) was kindly provided by R. Bhardwaj and M. Hediger (University of Bern, Bern, Switzerland). This variant is translated from the first ATG codon and thus deviates from the non-ATG-initiated protein which is expressed in vivo (accession number NM_018646.6) by lacking 40 amino acids of the very N-terminus. For N-terminal labeling with EYFP, TRPV6 was cloned into pEYFP-C1 (Clontech) via EcoRI and SacII restriction sites. […]
(§2) After incubation, cover slips were carefully rinsed with phenol red-free DMEM supplemented with the compound and dosage corresponding to the previous incubation, which was then also present during imaging. […] Subcellular NFAT localization of TRPV6 expressing cells was again monitored on an Axiovert 135 inverted microscope (Zeiss, Oberkochen, Germany), as described in more detail before. […] Images were analyzed using Matlab2018a, differentiating between three cell populations based on the ratio of CFP emission intensity originating from the nucleus and the cytosol, similar to Schober et al. (2019).

[2] = system: TRPV6 R470A W583F; set-up: method as in PMID 33246965; settings: ref [47], cited from earlier work
[3] = system: TRPV6 I575A; experiment: NFAT screen, TRPV6 I575A; format: cell-based, human; settings: HEK293 cells; 5 μM cis-22a, 2 h, vs DMSO
Method: as §1, §2

[4] = system: TRPV6 R589A; experiment: NFAT screen, TRPV6 R589A; format: cell-based, human; settings: HEK293 cells; 5 μM cis-22a, 2 h; same for solvent control
Method: as §1, §2

[5] = system: TRPV6 D580A; experiment: NFAT screen, TRPV6 D580A; format: cell-based, human; settings: HEK293 cells; 5 μM cis-22a, 2 h, vs DMSO
Method: as §1, §2

[6] = system: TRPV6 R470A W583F; experiment: Whole-cell patch clamp, TRPV6 R470A W583F; format: cell-based, human; settings: HEK293 cells; 10 μM pal-PIP2 peptide; Figure 6A; compared with W583F
From the text: (§3) N-terminally TagRFP-labeled human TRPV6 (725 aa) was kindly provided by R. Bhardwaj and M. Hediger (University of Bern, Bern, Switzerland). This variant is translated from the first ATG codon and thus deviates from the non-ATG-initiated protein which is expressed in vivo (accession number NM_018646.6) by lacking 40 amino acids of the very N-terminus. For N-terminal labeling with EYFP, TRPV6 was cloned into pEYFP-C1 (Clontech) via EcoRI and SacII restriction sites. Mutations (F468A, R470A, F472A, K484A/Q, G488R, R492A/Q, I575A, G579A, D580A/K, H582A, W583A/F, H587A, R589A, W593A, R632A/Q, R470A, W583F) were introduced using the QuickChange XL site-directed mutagenesis kit (Stratagene, San Diego, CA, USA) and Pfu DNA Polymerase (Promega, Madison, WI, USA). pTagRFP-hTRPV6 I575A was kindly provided by the lab of M. Hediger (University of Bern, Bern, Switzerland). Forward and reverse primers for site-directed mutagenesis were synthesized by Eurofins genomics GmbH (Wien, Vienna, Austria). Intactness of the constructs in terms of sequence was confirmed by sequencing (Microsynth Austria GmbH, Wien, Vienna, Austria; Eurofins genomics GmbH, Wien, Vienna, Austria). […]
(§4) Electrophysiological experiments were performed at 20 °C to 24 °C in whole-cell recording configurations of the patch clamp technique. […] The liquid junction potential was determined as 12 mV; the voltages were not adjusted. […]

[7] = system: TRPV6 K484A; experiment: Whole-cell patch clamp, TRPV6 K484A; format: cell-based, human; settings: HEK293 cells; 10 μM pal-PIP2 peptide; p < 0.05; Figure 4D
From the text: as §3, §4

[8] = system: TRPV6 R470A; experiment: Whole-cell patch clamp, TRPV6 R470A; format: cell-based, human; settings: HEK293 cells; 10 μM pal-PIP2 peptide; p < 0.05; Figure 4D
From the text: as §3, §4

SMILES | reduction of nuclear NFAT localization [1] | inhibition by cis-22a in electrophysiological measurements ([2]; HEK293 cells, 0.1 and 10 μM cis-22a, n=6, Figure S6B) | resistance to cis-22a vs single mutants ([2]; R470A W583F, especially at the high blocker concentration) | inhibition by cis-22a (in words) ([2]; R470A W583F) | change of nuclear NFAT localization [3] | nuclear targeting of NFAT [4] | change of nuclear NFAT localization [5] | resistance to inhibition by pal-PIP2 peptide [6] | sensitivity to peptide-based PIP2 sequestration vs WT [7] | sensitivity to peptide-based PIP2 sequestration vs WT [8]
Cc1cccc(C2CCC(N3CCN(c4cccnc4)CC3)CC2)c1.O=C(O)C(F)(F)F (stereo not drawn) [cis-22a] | further significant reduction in nucleus-targeted NFAT | just modest inhibition | considerably higher resistance | very weak inhibition | not significantly changed | almost absent | not significantly changed | – | – | –
CCCCCCCCCCCCCCCC(=O)N[C@@H](Cc1c[nH]cn1)C(=O)N[C@@H](CCCNC(=N)N)C(=O)N[C@@H](CCC(N)=O)C(=O)N[C@@H](CCCCN)C(=O)N[C@@H](Cc1c[nH]cn1)C(=O)N[C@@H](Cc1ccccc1)C(=O)N[C@@H](CCC(=O)O)C(=O)N[C@@H](CCCCN)C(=O)N[C@@H](CCCNC(=N)N)C(=O)N[C@@H](CCCNC(=N)N)C(N)=O [pal-PIP2 peptide] (Palmitoyl-HRQKHFEKRR-NH2) | – | – | – | – | – | – | – | regained significant resistance to inhibition | significantly reduced sensitivity | significantly reduced sensitivity
